Data as given in PMC9067983, “Identification of highly selective type II kinase inhibitors with chiral peptidomimetic tails” (Journal of Enzyme Inhibition and Medicinal Chemistry, 2022).
Where a SMILES comes first, the peptide text is derived from it. [ ]: non-standard residue; d: D form. The star is where a group is joined. X1 = Cc1ccc(Nc2ncc3c(n2)N(C)C(=O)N(c2cc(C(=O)*)ccc2C)C3)cn1; Aib = CC(C)(N)C(=O)O

What was measured:
Assay in all cases: kinase selectivity profiling
Type in all cases: biochemical
Conditions in all cases: 10µM ATP, read-out: % inhibition (relative to DMSO)
ALK6/BMPR1B = target: T1, ALK6/BMPR1B (Homo sapiens, UniProt O00238)
T1 construct: purchased Reaction Biology Corp
T1 sequence (O00238 14-502): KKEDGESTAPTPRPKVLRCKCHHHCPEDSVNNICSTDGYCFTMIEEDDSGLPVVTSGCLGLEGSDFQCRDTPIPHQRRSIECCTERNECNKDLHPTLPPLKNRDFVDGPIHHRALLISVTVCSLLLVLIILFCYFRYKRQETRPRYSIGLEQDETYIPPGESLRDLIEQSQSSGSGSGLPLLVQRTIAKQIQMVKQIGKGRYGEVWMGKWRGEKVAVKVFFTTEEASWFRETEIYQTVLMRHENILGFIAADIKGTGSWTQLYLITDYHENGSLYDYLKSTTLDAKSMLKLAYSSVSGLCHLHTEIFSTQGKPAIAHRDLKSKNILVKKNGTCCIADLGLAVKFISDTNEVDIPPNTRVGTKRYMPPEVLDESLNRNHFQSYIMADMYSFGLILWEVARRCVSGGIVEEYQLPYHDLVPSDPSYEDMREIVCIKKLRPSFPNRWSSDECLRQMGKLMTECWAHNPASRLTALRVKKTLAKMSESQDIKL
Method: (§1) Full panel kinase profiling and kinase IC50 measurement were performed by using Reaction Biology Corp. (San Diego, USA).

BMPR2 = target: T2, BMPR2 (Homo sapiens, UniProt Q13873)
T2 construct: purchased Reaction Biology Corp
T2 sequence (Q13873 27-1038): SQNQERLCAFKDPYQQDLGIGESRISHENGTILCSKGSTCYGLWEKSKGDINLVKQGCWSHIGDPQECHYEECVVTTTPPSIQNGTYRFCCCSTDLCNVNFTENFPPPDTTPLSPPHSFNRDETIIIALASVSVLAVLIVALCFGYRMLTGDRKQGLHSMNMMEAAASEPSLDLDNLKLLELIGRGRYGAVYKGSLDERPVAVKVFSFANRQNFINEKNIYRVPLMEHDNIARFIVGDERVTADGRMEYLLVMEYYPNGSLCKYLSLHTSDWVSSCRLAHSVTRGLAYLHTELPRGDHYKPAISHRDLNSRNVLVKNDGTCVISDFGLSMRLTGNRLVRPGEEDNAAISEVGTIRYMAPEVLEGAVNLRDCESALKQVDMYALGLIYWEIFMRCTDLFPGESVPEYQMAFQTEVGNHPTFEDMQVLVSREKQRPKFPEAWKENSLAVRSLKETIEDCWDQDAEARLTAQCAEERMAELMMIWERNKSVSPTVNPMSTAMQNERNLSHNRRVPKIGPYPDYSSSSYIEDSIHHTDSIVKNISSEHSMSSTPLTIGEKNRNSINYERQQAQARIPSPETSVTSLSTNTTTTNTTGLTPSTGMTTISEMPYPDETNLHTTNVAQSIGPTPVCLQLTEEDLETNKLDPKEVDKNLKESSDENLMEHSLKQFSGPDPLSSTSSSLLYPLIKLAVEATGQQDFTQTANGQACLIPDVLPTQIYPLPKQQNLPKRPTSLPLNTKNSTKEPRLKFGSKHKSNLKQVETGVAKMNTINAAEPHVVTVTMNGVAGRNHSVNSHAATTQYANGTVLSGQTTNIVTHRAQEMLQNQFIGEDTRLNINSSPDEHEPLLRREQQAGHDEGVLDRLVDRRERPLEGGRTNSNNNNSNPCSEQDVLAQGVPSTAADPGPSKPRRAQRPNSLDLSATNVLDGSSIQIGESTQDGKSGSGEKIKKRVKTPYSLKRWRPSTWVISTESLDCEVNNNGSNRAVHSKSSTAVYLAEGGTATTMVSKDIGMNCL
Method: as §1

BRSK2 = target: T3, BRSK2 (Homo sapiens, UniProt Q8IWQ3)
T3 construct: purchased Reaction Biology Corp
Method: as §1

CAMKK1 = target: T4, CAMKK1 (Homo sapiens, UniProt Q8N5S9)
T4 construct: purchased Reaction Biology Corp
Method: as §1

CDK2/Cyclin A1 = target: T5, CDK2/Cyclin A1 (Homo sapiens, UniProt P24941)
T5 construct: purchased Reaction Biology Corp
Method: as §1

CDK3/cyclin E = target: T6, CDK3/cyclin E (Homo sapiens, UniProt Q00526)
T6 construct: purchased Reaction Biology Corp
Method: as §1

CDK5/p35 = target: T7, CDK5/p35 (Homo sapiens, UniProt Q00535)
T7 construct: purchased Reaction Biology Corp
Method: as §1

CK1epsilon = target: T8, CK1epsilon (Homo sapiens, UniProt P49674)
T8 construct: purchased Reaction Biology Corp
Method: as §1

CLK3 = target: T9, CLK3 (Homo sapiens, UniProt P49761)
T9 construct: purchased Reaction Biology Corp
T9 sequence (P49761 whole entry): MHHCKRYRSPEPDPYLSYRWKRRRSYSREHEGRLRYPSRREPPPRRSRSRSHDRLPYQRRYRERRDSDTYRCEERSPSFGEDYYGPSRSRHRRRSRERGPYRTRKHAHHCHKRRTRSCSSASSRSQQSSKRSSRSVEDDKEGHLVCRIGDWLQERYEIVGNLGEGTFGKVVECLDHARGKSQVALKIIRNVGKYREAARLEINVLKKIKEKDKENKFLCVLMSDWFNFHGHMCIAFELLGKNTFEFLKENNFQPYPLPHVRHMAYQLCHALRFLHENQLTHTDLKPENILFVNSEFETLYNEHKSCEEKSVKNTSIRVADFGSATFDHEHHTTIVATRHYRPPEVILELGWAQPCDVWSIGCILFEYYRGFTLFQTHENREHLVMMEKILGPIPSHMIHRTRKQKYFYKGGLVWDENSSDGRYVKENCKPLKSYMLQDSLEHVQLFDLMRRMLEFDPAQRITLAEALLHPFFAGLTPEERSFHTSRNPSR
Method: as §1

CLK4 = target: T10, CLK4 (Homo sapiens, UniProt Q9HAZ1)
T10 construct: purchased Reaction Biology Corp
Method: as §1

DAPK1 = target: T11, DAPK1 (Homo sapiens, UniProt P53355)
T11 construct: purchased Reaction Biology Corp
Method: as §1

DYRK2 = target: T12, DYRK2 (Homo sapiens, UniProt Q92630)
T12 construct: purchased Reaction Biology Corp
Method: as §1

DYRK3 = target: T13, DYRK3 (Homo sapiens, UniProt O43781)
T13 construct: purchased Reaction Biology Corp
Method: as §1

DYRK4 = target: T14, DYRK4 (Homo sapiens, UniProt Q9NR20)
T14 construct: purchased Reaction Biology Corp
Method: as §1

ERN2/IRE2 = target: T15, ERN2/IRE2 (Homo sapiens, UniProt Q76MJ5)
T15 construct: purchased Reaction Biology Corp
Method: as §1

GSK3b = target: T16, GSK3b (Homo sapiens, UniProt P49841)
T16 construct: purchased Reaction Biology Corp
Method: as §1

IRAK1 = target: T17, IRAK1 (Homo sapiens, UniProt P51617)
T17 construct: purchased Reaction Biology Corp
Method: as §1

JAK3 = target: T18, JAK3 (Homo sapiens, UniProt P52333)
T18 construct: purchased Reaction Biology Corp
Method: as §1

KDR/VEGFR2 = target: T19, KDR/VEGFR2 (Homo sapiens, UniProt P35968)
T19 construct: purchased Reaction Biology Corp
T19 sequence (P35968 20-1356): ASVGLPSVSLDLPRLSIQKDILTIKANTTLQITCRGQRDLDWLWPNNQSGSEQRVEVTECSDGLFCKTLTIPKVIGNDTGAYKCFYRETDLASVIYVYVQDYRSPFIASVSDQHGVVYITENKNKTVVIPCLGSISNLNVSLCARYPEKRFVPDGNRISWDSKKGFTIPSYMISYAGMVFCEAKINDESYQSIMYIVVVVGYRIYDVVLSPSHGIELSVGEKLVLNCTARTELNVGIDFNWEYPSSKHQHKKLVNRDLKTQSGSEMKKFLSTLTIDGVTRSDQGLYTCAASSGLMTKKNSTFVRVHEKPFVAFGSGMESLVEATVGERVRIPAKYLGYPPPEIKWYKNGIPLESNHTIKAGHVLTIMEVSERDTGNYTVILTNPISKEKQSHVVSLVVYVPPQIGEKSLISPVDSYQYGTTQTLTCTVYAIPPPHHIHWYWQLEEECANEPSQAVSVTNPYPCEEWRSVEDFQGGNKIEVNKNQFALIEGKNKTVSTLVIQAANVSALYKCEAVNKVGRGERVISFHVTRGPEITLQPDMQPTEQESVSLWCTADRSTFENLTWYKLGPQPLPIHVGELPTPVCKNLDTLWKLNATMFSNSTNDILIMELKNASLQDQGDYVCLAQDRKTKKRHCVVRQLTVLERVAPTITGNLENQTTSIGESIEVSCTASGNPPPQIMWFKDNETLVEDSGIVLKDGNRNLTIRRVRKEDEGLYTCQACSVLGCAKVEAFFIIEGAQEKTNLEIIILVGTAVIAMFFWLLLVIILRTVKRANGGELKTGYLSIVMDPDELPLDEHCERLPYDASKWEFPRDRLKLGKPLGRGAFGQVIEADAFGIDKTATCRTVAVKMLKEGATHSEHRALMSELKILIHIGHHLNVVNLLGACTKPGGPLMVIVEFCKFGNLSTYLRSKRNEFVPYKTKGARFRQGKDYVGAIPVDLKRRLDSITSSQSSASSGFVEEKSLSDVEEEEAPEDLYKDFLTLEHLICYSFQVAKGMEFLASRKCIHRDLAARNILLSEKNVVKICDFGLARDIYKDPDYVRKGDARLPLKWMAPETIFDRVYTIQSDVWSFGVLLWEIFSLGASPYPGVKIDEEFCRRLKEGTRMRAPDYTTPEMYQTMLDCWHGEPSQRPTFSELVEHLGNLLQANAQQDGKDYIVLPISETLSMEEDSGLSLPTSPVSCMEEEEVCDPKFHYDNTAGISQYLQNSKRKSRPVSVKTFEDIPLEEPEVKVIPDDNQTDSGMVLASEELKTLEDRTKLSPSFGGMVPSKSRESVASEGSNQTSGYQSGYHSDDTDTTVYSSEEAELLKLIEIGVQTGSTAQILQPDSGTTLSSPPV
Method: as §1

KSR1 = target: T20, KSR1 (Homo sapiens, UniProt Q8IVT5)
T20 construct: purchased Reaction Biology Corp
Method: as §1

LATS1 = target: T21, LATS1 (Homo sapiens, UniProt O95835)
T21 construct: purchased Reaction Biology Corp
Method: as §1

LKB1 = target: T22, LKB1 (Homo sapiens, UniProt Q15831)
T22 construct: purchased Reaction Biology Corp
Method: as §1

MAPKAPK2 = target: T23, MAPKAPK2 (Homo sapiens, UniProt P49137)
T23 construct: purchased Reaction Biology Corp
Method: as §1

MAPKAPK3 = target: T24, MAPKAPK3 (Homo sapiens, UniProt Q16644)
T24 construct: purchased Reaction Biology Corp
Method: as §1

MEK1 = target: T25, MEK1 (Homo sapiens, UniProt Q02750)
T25 construct: purchased Reaction Biology Corp
Method: as §1

MKK7 = target: T26, MKK7 (Homo sapiens, UniProt O14733)
T26 construct: purchased Reaction Biology Corp
Method: as §1

MYO3b = target: T27, MYO3b (Homo sapiens, UniProt Q8WXR4)
T27 construct: purchased Reaction Biology Corp
Method: as §1

NEK4 = target: T28, NEK4 (Homo sapiens, UniProt P51957)
T28 construct: purchased Reaction Biology Corp
Method: as §1

NEK9 = target: T29, NEK9 (Homo sapiens, UniProt Q8TD19)
T29 construct: purchased Reaction Biology Corp
T29 sequence (Q8TD19 whole entry): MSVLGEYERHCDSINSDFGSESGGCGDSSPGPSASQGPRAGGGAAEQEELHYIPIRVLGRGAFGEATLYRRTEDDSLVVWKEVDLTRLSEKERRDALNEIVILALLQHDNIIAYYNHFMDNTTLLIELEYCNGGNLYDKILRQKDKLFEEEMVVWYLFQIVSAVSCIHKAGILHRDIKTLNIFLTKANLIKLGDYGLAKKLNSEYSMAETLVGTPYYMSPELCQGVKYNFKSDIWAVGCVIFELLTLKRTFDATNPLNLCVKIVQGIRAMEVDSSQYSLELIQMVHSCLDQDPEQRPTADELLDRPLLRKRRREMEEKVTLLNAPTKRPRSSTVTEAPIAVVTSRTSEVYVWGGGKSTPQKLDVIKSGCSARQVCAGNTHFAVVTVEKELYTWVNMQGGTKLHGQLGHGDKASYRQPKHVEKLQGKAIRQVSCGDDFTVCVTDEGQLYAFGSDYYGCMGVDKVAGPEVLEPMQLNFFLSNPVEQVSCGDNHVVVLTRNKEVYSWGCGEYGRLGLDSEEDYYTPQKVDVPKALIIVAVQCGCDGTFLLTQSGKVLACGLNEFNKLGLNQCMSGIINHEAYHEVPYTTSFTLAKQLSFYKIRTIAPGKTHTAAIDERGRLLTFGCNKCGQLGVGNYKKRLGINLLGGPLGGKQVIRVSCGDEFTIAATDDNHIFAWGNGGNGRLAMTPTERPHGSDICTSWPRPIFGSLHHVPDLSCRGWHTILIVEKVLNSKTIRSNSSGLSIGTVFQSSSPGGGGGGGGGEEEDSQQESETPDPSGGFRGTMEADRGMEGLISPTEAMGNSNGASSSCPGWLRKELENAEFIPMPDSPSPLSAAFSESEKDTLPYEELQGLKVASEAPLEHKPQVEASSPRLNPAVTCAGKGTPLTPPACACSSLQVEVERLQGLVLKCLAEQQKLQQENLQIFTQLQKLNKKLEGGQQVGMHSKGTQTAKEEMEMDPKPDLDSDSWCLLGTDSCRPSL
Method: as §1

PAK2 = target: T30, PAK2 (Homo sapiens, UniProt Q13177)
T30 construct: purchased Reaction Biology Corp
Method: as §1

PKAcg = target: T31, PKAcg (Homo sapiens, UniProt P22612)
T31 construct: purchased Reaction Biology Corp
Method: as §1

PKCG = target: T32, PKCG (Homo sapiens, UniProt P05129)
T32 construct: purchased Reaction Biology Corp
Method: as §1

PKCa = target: T33, PKCa (Homo sapiens, UniProt P17252)
T33 construct: purchased Reaction Biology Corp
Method: as §1

PKCb1 = target: T34, PKCb1 (Homo sapiens, UniProt P05771)
T34 construct: purchased Reaction Biology Corp
Method: as §1

PKD2/PRKD2 = target: T35, PKD2/PRKD2 (Homo sapiens, UniProt Q9BZL6)
T35 construct: purchased Reaction Biology Corp
Method: as §1

PRKX = target: T36, PRKX (Homo sapiens, UniProt P51817)
T36 construct: purchased Reaction Biology Corp
Method: as §1

SLK/STK2 = target: T37, SLK/STK2 (Homo sapiens, UniProt Q9H2G2)
T37 construct: purchased Reaction Biology Corp
Method: as §1

STK32B/YANK2 = target: T38, STK32B/YANK2 (Homo sapiens, UniProt Q9NY57)
T38 construct: purchased Reaction Biology Corp
Method: as §1

STK33 = target: T39, STK33 (Homo sapiens, UniProt Q9BYT3)
T39 construct: purchased Reaction Biology Corp
Method: as §1

TAOK2/TAO1 = target: T40, TAOK2/TAO1 (Homo sapiens, UniProt Q9UL54)
T40 construct: purchased Reaction Biology Corp
Method: as §1

TBK1 = target: T41, TBK1 (Homo sapiens, UniProt Q9UHD2)
T41 construct: purchased Reaction Biology Corp
Method: as §1

TTBK1 = target: T42, TTBK1 (Homo sapiens, UniProt Q5TCY1)
T42 construct: purchased Reaction Biology Corp
Method: as §1

VRK2 = target: T43, VRK2 (Homo sapiens, UniProt Q86Y07)
T43 construct: purchased Reaction Biology Corp
T43 sequence (Q86Y07 whole entry): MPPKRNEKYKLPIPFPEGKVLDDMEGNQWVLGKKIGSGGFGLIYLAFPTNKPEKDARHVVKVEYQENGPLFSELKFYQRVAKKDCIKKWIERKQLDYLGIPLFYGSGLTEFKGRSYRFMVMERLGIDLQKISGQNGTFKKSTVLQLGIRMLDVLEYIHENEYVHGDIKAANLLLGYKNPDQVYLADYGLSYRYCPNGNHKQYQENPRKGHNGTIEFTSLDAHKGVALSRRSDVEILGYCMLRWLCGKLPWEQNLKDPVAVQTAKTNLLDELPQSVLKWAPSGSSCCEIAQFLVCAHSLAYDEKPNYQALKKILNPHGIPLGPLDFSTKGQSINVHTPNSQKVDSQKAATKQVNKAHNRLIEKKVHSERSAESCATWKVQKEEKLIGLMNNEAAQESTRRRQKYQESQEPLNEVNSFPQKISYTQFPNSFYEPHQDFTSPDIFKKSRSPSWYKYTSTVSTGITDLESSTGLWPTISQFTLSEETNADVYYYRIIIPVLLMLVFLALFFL
Method: as §1

Cc1ccc(Nc2ncc3c(n2)N(C)C(=O)N(c2cc(C(=O)N[C@H](C(=O)N4CCC[C@H]4C(=O)NC(C)(C)C(=O)N[C@@H](CC(C)C)C(=O)N(C)C)C(C)C)ccc2C)C3)cn1 [7a, (S)-N-(1-(((S)-1-(dimethylamino)-4-methyl-1-oxopentan-2-yl)amino)-2-methyl-1-oxopropan-2-yl)-1-((4-methyl-3-(1-methyl-7-((6-methylpyridin-3-yl)amino)-2-oxo-1,4-dihydropyrimido[4,5-d]pyrimidin-3(2H)-yl)benzoyl)-L-valyl)pyrrolidine-2-carboxamide] (X1-VP[Aib]L-NMe2)
inhibition at 1 µM (ALK6/BMPR1B): 16%
inhibition at 1 µM (BMPR2): 10%
inhibition at 1 µM (BRSK2): 8%
inhibition at 1 µM (CAMKK1): 0%
inhibition at 1 µM (CDK2/Cyclin A1): 1%
inhibition at 1 µM (CDK3/cyclin E): 0%
inhibition at 1 µM (CDK5/p35): 6%
inhibition at 1 µM (CK1epsilon): 0%
inhibition at 1 µM (CLK3): 17%
inhibition at 1 µM (CLK4): 0%
inhibition at 1 µM (DAPK1): 0%
inhibition at 1 µM (DYRK2): 8%
inhibition at 1 µM (DYRK3): 23%
inhibition at 1 µM (DYRK4): 3%
inhibition at 1 µM (ERN2/IRE2): 2%
inhibition at 1 µM (GSK3b): 0%
inhibition at 1 µM (IRAK1): 14%
inhibition at 1 µM (JAK3): 0%
inhibition at 1 µM (KDR/VEGFR2): 12%
inhibition at 1 µM (KSR1): 2%
inhibition at 1 µM (LATS1): 4%
inhibition at 1 µM (LKB1): 0%
inhibition at 1 µM (MAPKAPK2): 4%
inhibition at 1 µM (MAPKAPK3): 2%
inhibition at 1 µM (MEK1): 8%
inhibition at 1 µM (MKK7): 2%
inhibition at 1 µM (MYO3b): 0%
inhibition at 1 µM (NEK4): 0%
inhibition at 1 µM (NEK9): 8%
inhibition at 1 µM (PAK2): 0%
inhibition at 1 µM (PKAcg): 0%
inhibition at 1 µM (PKCG): 9%
inhibition at 1 µM (PKCa): 0%
inhibition at 1 µM (PKCb1): 4%
inhibition at 1 µM (PKD2/PRKD2): 0%
inhibition at 1 µM (PRKX): 0%
inhibition at 1 µM (SLK/STK2): 9%
inhibition at 1 µM (STK32B/YANK2): 16%
inhibition at 1 µM (STK33): 0%
inhibition at 1 µM (TAOK2/TAO1): 4%
inhibition at 1 µM (TBK1): 0%
inhibition at 1 µM (TTBK1): 0%
inhibition at 1 µM (VRK2): 0%
